{"source": "patent US12152060B2", "about": "“Interleukin-2 variants and methods of uses thereof” (Cugene Inc, priority 2018, dated 2024)", "key": {"[1]": {"tested_on": "STAT5 phosphorylation in CD4+ Treg cells (CD4+/Foxp3+/CD25high)", "experiment": "STAT5 phosphorylation in CD4+ Treg cells, human PBMC assay by FACS", "format": "cell-based", "conditions": "pSTAT5, Treg versus Tconv", "source_text": "Single amino acid substitutions were introduced to IL-2 at positions corresponding to amino acids interacting with receptor subunit(s) β or γ or By. These substitutions were aimed to reduce IL-2 signaling capacity through the intermediate affinity IL-2Rβγ complex and confer signaling specificity from the high affinity IL-2Rαβγ. IL-2 variants containing single amino acid substitutions were examined for their ability to differentially stimulate STAT5 phosphorylation in CD4 positive Treg and Tconv cells. STAT5 is known to be involved in the downstream signaling cascade upon IL-2 binding to the transmembrane IL-2 receptors. The phosphorylation of STAT5 in defined lymphocyte subpopulations was measured using fresh human peripheral blood mononuclear cells (PBMC) and the forkhead transcription factor FOXP3 was used to identify the Treg population in FACS analysis.\nBriefly, human PBMC were isolated by Ficoll-Hypaque centrifugation from the buffy coat of a healthy donor. PBMC were starved in serum-free MACS buffer at 4° C. for 1 hour. 2×10^5 PBMC were then treated with serial dilutions of test compounds for 30 min at 37° C. Cells were fixed and permeabilized with Foxp3/Transcription Factor Staining Buffer Set (EBIO) by incubating with 1× Foxp3 fixation/permeabilization working solution for 30 minutes and washing with 1× permeabilization buffer. Cells were additionally fixed with Cytofix buffer and permeabilized with Perm Buffer III (BD Biosciences) and then washed. After blocking Fc receptors by adding human TruStain™ FcX (1:50 dilution), cells were stained with a mixture of anti-CD25-PE, anti-FOXP3-APC, anti-pSTAT5-FITC, and anti-CD4-PerCP-Cy5.5 antibodies at concentrations recommended by the manufacturer for 45 minutes at room temperature. Cells were collected by centrifugation, washed, resuspended in FACS buffer, and analyzed by flow cytometry. The flow cytometry data was gated into CD4+/Foxp3+/CD25^high and CD4+/Foxp3−/CD25^low groups for the Treg and CD4 conventional T cell subsets, respectively. Data are expressed as a percent of pStat5 positive cells in gated population."}, "[2]": {"tested_on": "Treg cells, CD4+ Tconv, CD8 T and NK cells in blood", "experiment": "Dose-response pharmacodynamics study in mice following a single injection", "format": "in vivo, mouse", "procedure": "Following a single subcutaneous administration of vehicle (PBS) or P-0511 (1, 0.3, 0.1, or 0.03 mg/kg) to female Balb/C mice (n=5/group), peripheral blood was collected on day-2 as baseline, and post dose on days 3, 5, and 7. On day 7, mice were sacrificed, and spleens were harvested. Blood lymphocyte phenotyping, proliferation and expansion were measured by flow cytometry at each timepoint using fresh whole blood."}, "[3]": {"biological_target": "T1, non-covalent complex of IL-2Rβ-ECD (NP_000869) and γc-ECD (NP_000197) (Homo sapiens, UniProt P14784+P31785)", "T1 construct": "non-covalent complex of IL-2Rβ-ECD (NP_000869) and γc-ECD (NP_000197)", "T1 sequence (P14784 27-240 limits assumed)": "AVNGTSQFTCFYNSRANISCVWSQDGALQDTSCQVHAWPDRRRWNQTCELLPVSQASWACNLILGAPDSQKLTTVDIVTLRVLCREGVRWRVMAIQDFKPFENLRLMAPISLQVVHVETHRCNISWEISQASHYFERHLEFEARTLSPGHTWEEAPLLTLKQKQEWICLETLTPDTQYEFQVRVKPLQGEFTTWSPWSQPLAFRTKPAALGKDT", "T1 sequence (P31785 23-262 limits assumed)": "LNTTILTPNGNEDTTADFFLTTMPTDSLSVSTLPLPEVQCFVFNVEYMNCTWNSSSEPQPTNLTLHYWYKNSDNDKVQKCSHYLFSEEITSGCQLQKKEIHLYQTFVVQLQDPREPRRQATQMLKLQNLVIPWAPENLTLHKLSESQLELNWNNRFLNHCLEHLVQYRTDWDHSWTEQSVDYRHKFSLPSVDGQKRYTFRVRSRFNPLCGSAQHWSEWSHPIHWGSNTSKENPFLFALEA", "experiment": "ELISA binding to IL-2Rβ and γc complex", "procedure": "Briefly, non-covalent complex of IL-2Rβ-ECD (NP_000869) and γc-ECD (NP_000197) through heterodimeric Fc chains was coated onto the wells of Nunc Maxisorp 96-well microplates at 2 μg/well. After overnight incubation at 4° C. and blocking with superblock (ThermoFisher), 3-fold serial dilutions of IL-2 Fc fusion proteins starting at either 100 or 270 nM were added to each well at 100 μl/well. Following a one-hour incubation at room temperature, biotin mouse anti-human IL-2 Ab (BD BioSciences) at 1 μg/ml was added to each well followed by incubation with HRP-Avidin (ThermoFisher) at 1 μg/ml for 1 hour. Wells were thoroughly aspirated and washed three times with PBS/0.05% Tween-20 following each step. Finally, 100 μl TMB substrate was added to each well; the plate was developed at room temperature in the dark for 10 minutes, and 100 μl/well of stop solution (2N Sulfuric acid, Ricca Chemical) was added. Absorbance was determined at 450 nm; curves were fit using Prism software (GraphPad) and illustrated in FIG. 11E."}, "[4]": {"tested_on": "delayed-type hypersensitivity (DTH) mouse model", "experiment": "KLH-induced delayed-type hypersensitivity (DTH) mouse model, ear thickness", "format": "in vivo", "conditions": "for inhibition of ear inflammation (KLH-induced DTH), separate study: Q5D", "procedure": "The ability of Treg cells induced by IL-2 variants to suppress T cell antigen-driven inflammation in vivo was assessed in a model of delayed-type hypersensitivity (DTH). Female Balb/C mice (7-week old) were acclimated in house for 7 days and randomized into groups. Subcutaneous administration of vehicle (PBS), P-0511 at either 0.1 mg/kg or 0.3 mg/kg was initiated on day-2 and was given either once every 3 days (Q3D) for three injections or once every 5 days (Q5D) for two injections. Mice were then sensitized with a subcutaneous administration of 100 μg keyhole limpet hemocyanin (KLH) in 200 μl saline on day 0. For Q3D dosing, two more subcutaneous injections of PBS or P-0511 (0.1 or 0.3 mg/kg) were administered on days 1 and 4; for Q5D dosing, one additional s.c. injection of PBS, 0.1 or 0.3 mg/kg P-0511 was administered on day 3. Mice received an intradermal challenge of KLH (5 μg in 10 μl saline) in right ear on day 5. Right ear thickness was measured using a caliper on day 5 prior KLH challenge and daily from day 6 to day 8 corresponding to 24 h, 48h, and 72 h post KLH challenge. One group of mice also received 5 mg/kg daily i.p. treatment of dexamethasone from day 5 to day 8 as a positive control.\nKinetics of the DTH response using the change in ear thickness relative to baseline values (Δ ear thickness) at various times after KLH challenge was illustrated in FIG. 23.\nIn a separate study, dose-dependent response of P-0511 (0.1, 0.3 and 1 mg/kg, Q5D) on suppression of KLH-induced DTH was determined and compared with Benchmark-1 (0.3 mg/kg, Q5D)."}}}
{"substance": "P-0511: Fc fusion protein of IL-2 variant L19H/S125I/Q126E; SEQ ID NO: 198", "values": [{"measurement": "window for selective activation of Treg cells over CD4+ Tconv cells (in words)", "setting": "[1]", "result": "further widened the Treg selectivity window"}, {"measurement": "Treg/Tconv ratio, peak (based on cell count)", "setting": "[2]; 0.1 mg/kg single dose", "result": 0.06}, {"measurement": "Treg/Tconv ratio, peak (based on cell count)", "setting": "[2]; 0.3 mg/kg single dose", "result": 0.18}, {"measurement": "Treg/Tconv ratio, peak (based on cell count)", "setting": "[2]; 1 mg/kg single dose", "result": 0.27}, {"measurement": "percentages of CD4+ Tconv, CD8 Teff or NK cells over the total lymphocytes", "setting": "[2]; 0.03-1 mg/kg single dose", "result": "no statistically significant changes"}, {"measurement": "EC50, binding to IL-2Rβ and γc complex (ELISA)", "setting": "[3]", "result": "did not show appreciable binding"}, {"measurement": "suppression of antigen-driven inflammation (Δ ear thickness)", "setting": "[4]; 0.1 mg/kg s.c., Q3D and Q5D", "result": "did not reach statistical significance"}, {"measurement": "inhibition of ear inflammation (KLH-induced DTH), separate study", "setting": "[4]; 0.1 mg/kg", "result": "mild"}, {"measurement": "suppression of antigen-driven inflammation (Δ ear thickness)", "setting": "[4]; 0.3 mg/kg s.c., Q3D or Q5D, all time points post KLH challenge", "result": "evident"}, {"measurement": "inhibition of ear inflammation (KLH-induced DTH), separate study", "setting": "[4]; 0.3 mg/kg", "result": "Intermediate"}, {"measurement": "inhibition of ear inflammation (KLH-induced DTH), separate study", "setting": "[4]; 1 mg/kg", "result": "strong resistance to KLH-induced DTH"}]}
